Measurements published in US20250319088A1, “DAPRODUSTAT FOR REDUCING FATIGUE IN A SUBJECT WITH ANEMIA ASSOCIATED WITH CHRONIC KIDNEY DISEASE” (GlaxoSmithKline Intellectual Property (No.2) Limited, priority 2021, published 2025).

Key:
[1] = tested on: non-dialysis patient with anaemia associated with chronic kidney disease; assay: CKD-AQ Tired/Low Energy/Weak Domain score in 28 week placebo controlled clinical study; type: in vivo, human; settings: on treatment population
Experimental: (§1) A 28 week randomized double blind placebo controlled clinical study in non-dialysis patient with anaemia associated with chronic kidney disease has been conducted. Participants were assessed for eligibility for inclusion in the study on the basis of the following (non-exhaustive) inclusion and exclusion criteria.
(§2) Enrolled participants were randomized 1:1 to receive either daprodustat or matching placebo tablets administered once daily.
(§3) The Short form SF-36 questionnaire was completed by participants on day 1 and on weeks 8, 12 and 28, and the CKD-AQ questionnaire was completed by participants on week −2 (i.e. during screening period) and on day 1 and weeks 8, 12 and 28.
(§4) • Mean change in the SF-36 Vitality Domain score (0-100) between baseline and week 28. This was a principal secondary endpoint and the study was appropriately powered for this endpoint. • Mean change from baseline by domain and overall symptoms score on the CKD-AQ (the study was not powered for this secondary endpoint, so only nominal significance can be assessed).
(§5) For the endpoints of mean change in haemoglobin and SF-36 Vitality Domain, an analysis of covariance model was used including covariates of baseline level, treatment, and region. The model provided point estimate and two-sided 95% CI for the treatment effect, together with a one-sided p-value. Significance was determined if the one-sided p-value was less than 0.025. The analysis population for the haemoglobin and SF-36 Vitality Domain endpoints was the intent-to-treat population. The analysis population for the Chronic Kidney Disease Anemia Questionnaire Tired/Low Energy/Weak Domain endpoint was the on treatment population and analysis was based on a mixed model repeated measures model fitted from baseline up to Week 28 with factors for treatment, time, region, baseline value, baseline value by time, and treatment by time interactions.
A simple linear transformation was used to recalibrate the items to a 0-100 scale as outlined in Tables 11 and 12. […]

[2] = tested on: non-dialysis patient with anaemia associated with chronic kidney disease; assay: hsCRP levels by baseline hsCRP quartile in 28 week placebo controlled clinical study; type: in vivo, human
Experimental: as §1
In addition to analysis of the intention to treat population, several sub-group analyses were pre-specified including subgroups with baseline hsCRP quartiles of <0.9 mg/L, 0.9 to <2.6 mg/L, 2.60 to <6.60 mg/L and ≥6.60 mg/L.
The changes in hsCRP levels in each quartile are given below in Tables 5 to 8.

[3] = tested on: non-dialysis patient with anaemia associated with chronic kidney disease; assay: SF-36 Vitality Domain score in 28 week randomized double blind placebo controlled clinical study; type: in vivo, human; settings: for Adjusted mean SF-36 Vitality Change from Baseline at Week 28 (SE): 0-100 score; for adjusted mean treatment difference (CI) in SF-36 Vitality: dapro-placebo
Experimental: as §1, §2
(§6) The treatment doses for participants in both treatment arms were titrated based on haemoglobin concentration as assessed by HemoCue. Haemoglobin concentration by HemoCue is assessed on day 1, and at weeks 2, 4, 8, 12, 16, 20, 24 and 28. The available dose steps of daprodustat and placebo were 1 mg, 2 mg, 4 mg, 6, mg, 8 mg, 10 mg, 12 mg and 16 mg. Dose modifications for participants followed the dose adjustment algorithm to achieve and maintain haemoglobin concentration within the target range of 11.0 to 12.0 g/dL outlined in Table 2.
as §3, §4, §5
For the endpoints of mean change in haemoglobin and SF-36 Vitality Domain by subgroup, a similar model to that described above was used, adding covariates for subgroup and subgroup by treatment interaction term. The analysis population for these endpoints was the intent-to-treat population.
For endpoints of difference in SF-36 Vitality domain response rate, a Cochran-Mantel-Haenszel chi-squared test was used adjusting for treatment, baseline level, and region, to make comparisons between the treatment groups. Significance was determined if the one-sided p-value was less than 0.025. The analysis population for these endpoints was the intent-to-treat population.

[4] = tested on: non-dialysis patient with anaemia associated with chronic kidney disease; assay: Haemoglobin concentration change from baseline to evaluation period in 28 week placebo controlled clinical study; type: in vivo, human
Experimental: as §1, §2, §6
The primary objective of the trial was to compare the efficacy of daprodustat to placebo on mean change in haemoglobin concentration. The primary endpoint was the mean change in haemoglobin concentration between baseline (day 1) and the evaluation period (mean over week 24 to week 28 inclusive).
For the endpoints of mean change in haemoglobin and SF-36 Vitality Domain, an analysis of covariance model was used including covariates of baseline level, treatment, and region. The model provided point estimate and two-sided 95% CI for the treatment effect, together with a one-sided p-value. Significance was determined if the one-sided p-value was less than 0.025. The analysis population for the haemoglobin and SF-36 Vitality Domain endpoints was the intent-to-treat population. […]

[5] = tested on: patients with type 2 diabetes mellitus, non-dialysis dependent chronic kidney disease and anemia; settings: at 25 weeks, cited from earlier work

Molecule: O=C(O)CNC(=O)C1C(=O)N(C2CCCCC2)C(=O)N(C2CCCCC2)C1=O [Daprodustat, N-((1,3-dicyclohexylhexahydro-2,4,6-trioxopyrimidin-5-yl)carbonyl)glycine]
- Adjusted Mean Treatment Difference (dapro − placebo) on CKD-AQ Tired/Low Energy/Weak Domain ([1]; baseline to week 28): 5.91
- Adjusted mean change from baseline to week 28 on CKD-AQ Tired/Low Energy/Weak Domain (SE) [1]: 8.72 (1.086)
- Adjusted mean change from baseline to week 28 on CKD-AQ Tired/Low Energy/Weak Domain (SE) ([1]; listed as daprodustat): 8.72
- Geometric mean hsCRP ([2]; baseline hsCRP 0.9-<2.60 mg/L, Baseline): 1.46 mg/L
- Geometric mean hsCRP ([2]; baseline hsCRP 0.9-<2.60 mg/L, Day 1): 1.46 mg/L
- Geometric mean hsCRP ([2]; baseline hsCRP 0.9-<2.60 mg/L, End of Treatment): 2.55 mg/L
- Geometric mean hsCRP ([2]; baseline hsCRP 0.9-<2.60 mg/L, Week 28): 2.55 mg/L
- Geometric mean hsCRP ([2]; baseline hsCRP 2.60-<6.60 mg/L, Baseline): 3.93 mg/L
- Geometric mean hsCRP ([2]; baseline hsCRP 2.60-<6.60 mg/L, Day 1): 3.93 mg/L
- Geometric mean hsCRP ([2]; baseline hsCRP 2.60-<6.60 mg/L, End of Treatment): 3.83 mg/L
- Geometric mean hsCRP ([2]; baseline hsCRP 2.60-<6.60 mg/L, Week 28): 3.85 mg/L
- Geometric mean hsCRP ([2]; baseline hsCRP <0.9 mg/L, Baseline): 0.48 mg/L
- Geometric mean hsCRP ([2]; baseline hsCRP <0.9 mg/L, Day 1): 0.48 mg/L
- Geometric mean hsCRP ([2]; baseline hsCRP <0.9 mg/L, End of Treatment): 0.86 mg/L
- Geometric mean hsCRP ([2]; baseline hsCRP <0.9 mg/L, Week 28): 0.85 mg/L
- Geometric mean hsCRP ([2]; baseline hsCRP ≥6.60 mg/L, Baseline): 16.96 mg/L
- Geometric mean hsCRP ([2]; baseline hsCRP ≥6.60 mg/L, Day 1): 16.79 mg/L
- Geometric mean hsCRP ([2]; baseline hsCRP ≥6.60 mg/L, End of Treatment): 8.92 mg/L
- Geometric mean hsCRP ([2]; baseline hsCRP ≥6.60 mg/L, Week 28): 9.04 mg/L
- change in hsCRP levels ([2]; subjects with high baseline hsCRP (≥6.60 mg/L), similar reductions in placebo group): large reductions in hsCRP levels
- SF-36 vitality domain scores for daprodustat and placebo ([3]; at week 12): not distinguishable
- adjusted difference in response rate (dapro-placebo), ≥6.0 point SF-36 Vitality increase ([3]; baseline to week 28): 0.13 (0.04, 0.22)
- Baseline SF-36 Vitality Sub-score Mean (SD) ([3]; baseline, intention to treat population, includes imputed values): 50.74 (21.175)
- Adjusted Mean Treatment Difference (dapro − placebo) in SF-36 Vitality change from baseline at week 28 ([3]; intention to treat population): 5.36
- Adjusted mean SF-36 Vitality Change from Baseline at Week 28 (SE) ([3]; intention to treat population): 7.29 (1.121)
- Adjusted mean SF-36 Vitality Change from Baseline at Week 28 (SE) ([3]; intention to treat population, listed as daprodustat): 7.29
- participants with a ≥6.0 point difference from baseline to week 28 in the SF-36 Vitality Sub-score ([3]; responder rate, intention to treat population): 58%
- adjusted mean treatment difference (CI) in SF-36 Vitality ([3]; subgroup baseline hsCRP 0.9 to <2.6 mg/L): 1.09 (−4.86, 7.04)
- adjusted mean SF-36 Vitality Change ([3]; subgroup baseline hsCRP 0.9 to <2.6 mg/L, week 28): 4.98
- adjusted mean treatment difference (CI) in SF-36 Vitality ([3]; subgroup baseline hsCRP 2.60 to <6.60 mg/L): 4.38 (−1.77, 10.53)
- adjusted mean SF-36 Vitality Change ([3]; subgroup baseline hsCRP 2.60 to <6.60 mg/L, week 28): 7.92
- adjusted mean treatment difference (CI) in SF-36 Vitality ([3]; subgroup baseline hsCRP <0.9 mg/L): 10.0 (3.53, 16.47)
- adjusted mean SF-36 Vitality Change ([3]; subgroup baseline hsCRP <0.9 mg/L, week 28): 9.84
- adjusted mean treatment difference (CI) in SF-36 Vitality ([3]; subgroup baseline hsCRP ≥6.60 mg/L): 7.71 (1.62, 13.80)
- adjusted mean treatment difference (CI) in SF-36 Vitality ([3]; subgroup baseline hsCRP ≥6.60 mg/L, listed as daprodustat): 7.71
- adjusted mean SF-36 Vitality Change ([3]; subgroup baseline hsCRP ≥6.60 mg/L, week 28): 8.24
- adjusted mean treatment difference in SF-36 Vitality domain subscore ([3]; subjects having baseline haemoglobin <9 g/dL): 7.44
- adjusted mean treatment difference in SF-36 Vitality ([3]; subjects having baseline haemoglobin >11 g/dL, small number of subjects): −7.13
- adjusted mean treatment difference in SF-36 Vitality domain subscore ([3]; subjects having baseline haemoglobin ≥9 to <10 g/dL): 5.25
- adjusted mean treatment difference in SF-36 Vitality domain subscore ([3]; subjects having baseline haemoglobin ≥10 to ≤11 g/dL): 6.01
- Week 28 SF-36 Vitality Sub-score Mean (SD) ([3]; week 28, intention to treat population, includes imputed values): 58.40 (18.312)
- haemoglobin concentration compared to placebo over the treatment period ([4]; one sided superiority p-value <0.0001): significantly increased haemoglobin concentration
- adjusted mean treatment difference in haemoglobin concentration ([4]; subjects having baseline haemoglobin >11 g/dL): 0.76 g/dL
- adjusted mean treatment difference in haemoglobin concentration ([4]; subjects having baseline hsCRP ≥6.60 mg/L): 1.25 g/dL

Molecule: darbepoetin alfa
- mean change in SF-36 Vitality domain ([5]; versus 4.2±19 placebo, P=0.196): 5.3±20
- percentage of responders having a ≥5-point increase in SF-36 Vitality domain ([5]; versus 49% placebo, nominal P=0.027): 54%
